Earlier results on one compound are cited in patent US20160067227A1, “PHARMACEUTICAL COMBINATIONS FOR THE TREATMENT OF METABOLIC DISORDERS” (Boehringer Ingelheim International GmbH, priority 2012, published 2016).

The conditions of this data set: metformin on its own, in the diabetic.

Take `CN(C)C(=N)N=C(N)N` [metformin]: the “average improvement in the HbA1c value” was 1.0-1.5%.
